This data set deals with CCRIS mutagenicity, Ames/micronucleus/aberration tests. Put plainly: CCRIS mutagenicity studies.
The mark [1] stands for this setting: Test System: AMES SALMONELLA TYPHIMURIUM, Strain/Indicator: TA100, Metabolic Activation: RAT, LIVER, S-9, AROCLOR 1254, Method: STANDARD PLATE.
[2] abbreviates: Test System: AMES SALMONELLA TYPHIMURIUM, Strain/Indicator: TA98, Metabolic Activation: NONE, Method: PREINCUBATION
Setting [3] is: Test System: AMES SALMONELLA TYPHIMURIUM, Strain/Indicator: TA100, Metabolic Activation: NONE, Method: PREINCUBATION
Where [4] appears, read: Test System: AMES SALMONELLA TYPHIMURIUM, Strain/Indicator: TA100, Metabolic Activation: NONE, Method: STANDARD PLATE.
[5] abbreviates: Test System: AMES SALMONELLA TYPHIMURIUM, Strain/Indicator: TA97A, Metabolic Activation: NONE, Method: STANDARD PLATE.
Where [6] appears, read: Test System: AMES SALMONELLA TYPHIMURIUM, Strain/Indicator: TA98, Metabolic Activation: NONE, Method: STANDARD PLATE.
Setting [7] is: Test System: AMES SALMONELLA TYPHIMURIUM, Strain/Indicator: TA102, Metabolic Activation: NONE, Method: STANDARD PLATE.
Where [8] appears, read: Test System: AMES SALMONELLA TYPHIMURIUM, Strain/Indicator: TA98, Metabolic Activation: RAT, LIVER, S-9, AROCLOR 1254, Method: STANDARD PLATE.

The record followed here is PubChem BioAssay AID1259407 (Chemical Carcinogenesis Research Information System (CCRIS), 2018).

Activity calls are given as the source filed them. No rule for the calls is given here.

With `CN(Cc1ccccc1)N=O`, the mutagenic call is, setting by setting: under setting [1], “active; positive”; (Test System: AMES SALMONELLA TYPHIMURIUM, Strain/Indicator: TA100, Metabolic Activation: RAT, LIVER, S-9, ETHANOL, Method: STANDARD PLATE) “active; positive”; (Test System: AMES SALMONELLA TYPHIMURIUM, Strain/Indicator: TA100, Metabolic Activation: RAT, LIVER, S-9, KC500 OR PHENOBARBITAL, Method: LIQUID SUSPENSION) “active; positive”; (Test System: AMES SALMONELLA TYPHIMURIUM, Strain/Indicator: TA100, Metabolic Activation: RAT, LIVER, S-9, Method: STANDARD PLATE) “active; positive”; (Test System: AMES SALMONELLA TYPHIMURIUM, Strain/Indicator: TA1535, Metabolic Activation: HAMSTER, LIVER, S-9, AROCLOR 1254, Method: STANDARD PLATE) “active; positive”; (Test System: AMES SALMONELLA TYPHIMURIUM, Strain/Indicator: TA1535, Metabolic Activation: NONE, Method: PREINCUBATION) “inactive; negative”. Also, the mutagenic call (Test System: AMES SALMONELLA TYPHIMURIUM, Strain/Indicator: TA1535, Metabolic Activation: NONE, Method: STANDARD PLATE) is “inactive; negative”; the mutagenic call (Test System: AMES SALMONELLA TYPHIMURIUM, Strain/Indicator: TA1535, Metabolic Activation: RAT, LIVER, HEPATOCYTES, Method: PREINCUBATION) is “inactive; negative”; the mutagenic call (Test System: AMES SALMONELLA TYPHIMURIUM, Strain/Indicator: TA1535, Metabolic Activation: RAT, LIVER, S-9, AROCLOR 1254, Method: STANDARD PLATE) is “active; positive”; the mutagenic call (Test System: AMES SALMONELLA TYPHIMURIUM, Strain/Indicator: TA1535, Metabolic Activation: RAT, LIVER, S-9, AROCLOR, Method: PREINCUBATION) was “active; positive”; the mutagenic call (Test System: AMES SALMONELLA TYPHIMURIUM, Strain/Indicator: TA1535, Metabolic Activation: RAT, LIVER, S-9, ETHANOL, Method: STANDARD PLATE) was “inactive; negative”; the mutagenic call (Test System: AMES SALMONELLA TYPHIMURIUM, Strain/Indicator: TA1535, Metabolic Activation: RAT, LIVER, S-9, SODIUM PHENOBARBITONE, Method: PREINCUBATION) was “active; positive”. For the same compound, the mutagenic call by setting is: (Test System: AMES SALMONELLA TYPHIMURIUM, Strain/Indicator: TA1535, Metabolic Activation: RAT, LIVER, S-9, Method: PREINCUBATION) “inactive; negative”; (Test System: AMES SALMONELLA TYPHIMURIUM, Strain/Indicator: TA1535, Metabolic Activation: RAT, LIVER, S-9, Method: STANDARD PLATE) “inactive; negative”.
As for `C[C@@]12CCc3occc3[C@H]1CC[C@@]13C[C@@H](CC[C@H]12)[C@@](O)(CO)C3`, the mutagenic call reads like this: (Test System: AMES SALMONELLA TYPHIMURIUM, Strain/Indicator: TM677, Metabolic Activation: NONE, Method: PREINCUBATION) “inactive; negative”; (Test System: AMES SALMONELLA TYPHIMURIUM, Strain/Indicator: TM677, Metabolic Activation: RAT, LIVER, S-9, AROCLOR 1254, Method: PREINCUBATION) “inactive; negative”.
On to `Cc1cc(Cc2ccc(N)c(C)c2)ccc1N`, for which the mutagenic call by setting is: under setting [2], “inactive; negative”; (Test System: AMES SALMONELLA TYPHIMURIUM, Strain/Indicator: TA98, Metabolic Activation: RAT, LIVER, S-9, PCB, Method: PREINCUBATION) “inactive; negative”; under setting [3], “inactive; negative”; (Test System: AMES SALMONELLA TYPHIMURIUM, Strain/Indicator: TA100, Metabolic Activation: RAT, LIVER, S-9, PCB, Method: PREINCUBATION) “inactive; negative”.
Turning to `O=c1c2c(c3ccc4[nH]cccc4c3c1O)O2`, the mutagenic call under setting [4] is “inactive; negative”.
Regarding `Cc1ccc2c(C)c3ccc4ccccc4c3nc2c1`, the mutagenic call (Test System: AMES SALMONELLA TYPHIMURIUM, Strain/Indicator: TA97A, Metabolic Activation: NONE, Method: PREINCUBATION) was “active; positive”; the mutagenic call under setting [2] is “active; positive”; the mutagenic call under setting [3] was “active; positive”; the mutagenic call under setting [1] was “active; positive”; the mutagenic call (Test System: AMES SALMONELLA TYPHIMURIUM, Strain/Indicator: TA102, Metabolic Activation: NONE, Method: PREINCUBATION) is “active; positive”.
As to `O=C(OCC1CCC2OC2C1)C1CCC2OC2C1` (configuration not stated), the mutagenic call under setting [5] is “inactive; negative”; the mutagenic call (Test System: AMES SALMONELLA TYPHIMURIUM, Strain/Indicator: TA97A, Metabolic Activation: RAT LIVER S-9, PHENOBARBITAL AND BETA-NAPHTHOFLAVONE (10%), Method: STANDARD PLATE) was “inactive; negative”; the mutagenic call under setting [6] is “inactive; negative”; the mutagenic call (Test System: AMES SALMONELLA TYPHIMURIUM, Strain/Indicator: TA98, Metabolic Activation: RAT LIVER S-9, PHENOBARBITAL AND BETA-NAPHTHOFLAVONE (10%), Method: STANDARD PLATE) was “inactive; negative”; the mutagenic call under setting [4] was “inactive; negative”; the mutagenic call (Test System: AMES SALMONELLA TYPHIMURIUM, Strain/Indicator: TA100, Metabolic Activation: RAT LIVER S-9, PHENOBARBITAL AND BETA-NAPHTHOFLAVONE (10%), Method: STANDARD PLATE) is “active; positive”. Further, the mutagenic call is “inactive; negative” under setting [7] and “inactive; negative” (Test System: AMES SALMONELLA TYPHIMURIUM, Strain/Indicator: TA102, Metabolic Activation: RAT LIVER S-9, PHENOBARBITAL AND BETA-NAPHTHOFLAVONE (10%), Method: STANDARD PLATE).
Consider `CC(=O)Nc1ccc2c(c1)Cc1cccc(O)c1-2`, for which the mutagenic call was “active; positive” under setting [8]; “active; positive” under setting [1]; “active; positive” (Test System: AMES SALMONELLA TYPHIMURIUM, Strain/Indicator: TA1538, Metabolic Activation: RAT, LIVER, S-9, AROCLOR 1254, Method: STANDARD PLATE).
In the case of `CCCCCCCC/C=C\CCCCCCCC(N)=O`, the mutagenic call is “inactive; negative. precipitation at 3 highest doses” (Test System: Ames Salmonella typhimurium, Strain/Indicator: TA98, Metabolic Activation: None, Method: Preincubation); “inactive; negative. precipitation at 3 highest doses” (Test System: Ames Salmonella typhimurium, Strain/Indicator: TA98, Metabolic Activation: Rat, Liver, S9, Phenobarbital and 5,6-benzoflavone, Method: Preincubation); “inactive; negative. precipitation at 3 highest doses” (Test System: Ames Salmonella typhimurium, Strain/Indicator: TA100, Metabolic Activation: None, Method: Preincubation); “inactive; negative. precipitation at 3 highest doses” (Test System: Ames Salmonella typhimurium, Strain/Indicator: TA100, Metabolic Activation: Rat, Liver, S9, Phenobarbital and 5,6-benzoflavone, Method: Preincubation); “inactive; negative. precipitation at 3 highest doses” (Test System: Ames Salmonella typhimurium, Strain/Indicator: TA1535, Metabolic Activation: None, Method: Preincubation); “inactive; negative. precipitation at 3 highest doses” (Test System: Ames Salmonella typhimurium, Strain/Indicator: TA1535, Metabolic Activation: Rat, Liver, S9, Phenobarbital and 5,6-benzoflavone, Method: Preincubation). For the same compound, the mutagenic call (Test System: Ames Salmonella typhimurium, Strain/Indicator: TA1537, Metabolic Activation: None, Method: Preincubation) was “inactive; negative. precipitation at 3 highest doses”; the mutagenic call (Test System: Ames Salmonella typhimurium, Strain/Indicator: TA1537, Metabolic Activation: Rat, Liver, S9, Phenobarbital and 5,6-benzoflavone, Method: Preincubation) is “inactive; negative. precipitation at 3 highest doses”; the mutagenic call (Test System: E. coli, Strain/Indicator: WP2uvrA/pKM101, Metabolic Activation: None, Method: Preincubation) is “inactive; negative. precipitation at 3 highest doses”; the mutagenic call (Test System: E. coli, Strain/Indicator: WP2uvrA/pKM101, Metabolic Activation: Rat, Liver, S9, Phenobarbital and 5,6-benzoflavone, Method: Preincubation) was “inactive; negative. precipitation at 3 highest doses”.
As for `Cc1cccc(C)c1C`, the mutagenic call under setting [5] is “active; positive”; the mutagenic call (Test System: AMES SALMONELLA TYPHIMURIUM, Strain/Indicator: TA97A, Metabolic Activation: RAT, LIVER, S-9, AROCLOR 1254, Method: STANDARD PLATE) is “inactive; negative”; the mutagenic call under setting [6] is “active; positive”; the mutagenic call under setting [8] was “inactive; negative”; the mutagenic call under setting [4] was “active; positive”; the mutagenic call under setting [1] is “inactive; negative”. Further, the mutagenic call under setting [7] was “active; positive” and the mutagenic call (Test System: AMES SALMONELLA TYPHIMURIUM, Strain/Indicator: TA102, Metabolic Activation: RAT, LIVER, S-9, AROCLOR 1254, Method: STANDARD PLATE) was “inactive; negative”.
For `[N-]=[N+]=NC[C@@H]1O[C@H](O)[C@H](O)[C@@H](O)[C@@H]1O`, the mutagenic call reads like this: under setting [6], “inactive; negative”; under setting [4], “active; positive”.
